From patent publication US20230192700A1, “PYRAZOLOPYRAZINES ACTING ON CANCERS VIA INHIBITION OF CDK12” (Bayer Aktiengesellschaft, priority 2020, published 2023)

Experiments:
CDK9/CyclinT1 = target: T1, CDK9/CyclinT1 (Homo sapiens, UniProt P50750); experiment: CDK9/CycT1 high ATP kinase assay (TR-FRET); type: biochemical; conditions: 2 mM ATP (high ATP); median; read-out: CDK9/CyclinT1, 2 mM ATP (high ATP) IC50 - [mol/l] (median)
T1 construct: Recombinant full-length His-tagged human CDK9 and CycT1; His-tag; purchased Life Technologies PV4131; host or cells: insect cells
Description: 2.5 CDK9/CycT1 High ATP Kinase Assay
CDK9/CycT1 -inhibitory activity of compounds of the present invention at a high ATP concentration after preincubation of enzyme and test compounds was quantified employing the CDK9/CycT1 TR-FRET assay as described in the following paragraphs.
Recombinant full-length His-tagged human CDK9 and CycT1, expressed in insect cells and purified by Ni-NTA affinity chromatography, were purchased from Life Technologies (Cat. No PV4131). As substrate for the kinase reaction biotinylated peptide biotin-Ttds-YISPLKSPYKISEG (C-terminus in amide form) was used which can be purchased e.g. form the company JERINI peptide technologies (Berlin, Germany).
For the assay 50 nanoL of a 100 fold concentrated solution of the test compound in DMSO was pipetted into either a black low volume 384 well microtiter plate or a black 1536 well microtiter plate (both Greiner Bio-One, Frickenhausen, Germany), 2 microL of a solution of CDK9/CycT1 in aqueous assay buffer [50 millimol/L Tris/HCl pH 8.0, 10 millimol/L MgCl2, 1.0 millimol/L dithiothreitol, 0.1 millimol/L sodium ortho-vanadate, 0.01% (v/v) Nonidet-P40 (Sigma)] were added and the mixture was incubated for 15 min at 22° C. to allow pre-binding of the test compounds to the enzyme before the start of the kinase reaction. Then the kinase reaction was started by the addition of 3 microL of a solution of adenosine-tri-phosphate (ATP, 3.3 millimol/L=>final conc. in the 5 microL assay volume is 2 millimol/L) and substrate (1.25 micromol/L =>final conc. in the 5 microL assay volume is 0.75 micromol/L) in assay buffer and the resulting mixture was incubated for a reaction time of 25 min at 22° C. The concentration of CDK9/CycT1 was adjusted depending of the activity of the enzyme lot and was chosen appropriate to have the assay in the linear range, typical concentrations were in the range of 0.5 microg/mL. The reaction was stopped by the addition of 3 microL of a solution of TR-FRET detection reagents (0.33 micromol/L streptavidine-XL665 [Cisbio Bioassays, Codolet, France] and 1.67 nanomol/L anti-RB(pSer807/pSer811)-antibody from BD Pharmingen [#558389] and 2 nanomol/L LANCE EU-W1024 labeled anti-mouse IgG antibody [Perkin-Elmer, product no. AD0077]) in an aqueous EDTA-solution (167 millimol/L EDTA, 0.2% (w/v) bovine serum albumin in 100 millimol/L HEPES pH 7.5).
The resulting mixture was incubated 1 h at 22° C. to allow the formation of complex between the phosphorylated biotinylated peptide and the detection reagents. Subsequently the amount of phosphorylated substrate was evaluated by measurement of the resonance energy transfer from the Eu-chelate to the streptavidine-XL. Therefore, the fluorescence emissions at 620 nm and 665 nm after excitation at 350 nm was measured in a TR-FRET reader, e.g. a Pherastar (BMG Labtechnologies, Offenburg, Germany) or a Viewlux (Perkin-Elmer). The ratio of the emissions at 665 nm and at […] was taken as the measure for the amount of phosphorylated substrate. The data were normalised (enzyme reaction without inhibitor=0% inhibition, all other assay components but no enzyme=100% inhibition).

[1] = test system: BRCA1 mRNA expression in MDA-MB-231 cells; experiment: qRT-PCR assay: inhibition of BRCA1 mRNA expression in MDA-MB-231 cells; type: cell-based, human; conditions: Homo sapiens, MDA-MB-231, 24 h, 24 h exposure, BRCA1 mRNA normalised to GAPDH, median, read-out: RTqPCR-MDA-MB-231 IC50 [mol/l] BRCA1 (median)
Description: 3. qRT-PCR Assay: BRCA1, ATR, MCL1 in MDA-MB-231, CAL-120
Tissue cultured human MDA-MB-231 human breast cancer cells were plated in 500 microL per well at 200,000 cells/well in a 24 well microtiter plate. After 24 h, the cells were exposed continuously for 24 h to test substances (substances were added with Tecan HP D300 Dispenser). RNA was prepared using Qiagen RNeasy MiniKit (#74106), RNA was quantified using a NanoDrop Equipment, and 600 nano gamms of RNA was coverted to cDNA using a SuperScript VILO kit (Thermofisher #11755050) followed by qPCR amplification. BRCA1 and ATR gene expression was measured by RT-qPCR and normalised to GAPDH housekeeping gene expression. qPCR primer sets have been purchased from Thermo Fisher Scientific/Applied Biosystems: BRCA1, # Hs 01556193; ATR, #Hs 00992123; GAPDH, #Hs 03929097.

T1 sequence (P50750 whole entry): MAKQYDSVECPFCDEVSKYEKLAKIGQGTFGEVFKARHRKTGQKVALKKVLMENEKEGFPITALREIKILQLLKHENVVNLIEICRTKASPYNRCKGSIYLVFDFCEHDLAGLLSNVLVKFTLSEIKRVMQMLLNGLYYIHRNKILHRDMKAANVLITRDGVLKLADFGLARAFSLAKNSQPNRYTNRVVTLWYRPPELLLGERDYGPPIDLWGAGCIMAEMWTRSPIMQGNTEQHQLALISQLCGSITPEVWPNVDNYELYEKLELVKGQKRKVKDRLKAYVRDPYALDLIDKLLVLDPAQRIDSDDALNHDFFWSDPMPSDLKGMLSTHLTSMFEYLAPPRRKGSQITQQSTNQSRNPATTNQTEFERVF
T1 sequence (O60563 whole entry partner): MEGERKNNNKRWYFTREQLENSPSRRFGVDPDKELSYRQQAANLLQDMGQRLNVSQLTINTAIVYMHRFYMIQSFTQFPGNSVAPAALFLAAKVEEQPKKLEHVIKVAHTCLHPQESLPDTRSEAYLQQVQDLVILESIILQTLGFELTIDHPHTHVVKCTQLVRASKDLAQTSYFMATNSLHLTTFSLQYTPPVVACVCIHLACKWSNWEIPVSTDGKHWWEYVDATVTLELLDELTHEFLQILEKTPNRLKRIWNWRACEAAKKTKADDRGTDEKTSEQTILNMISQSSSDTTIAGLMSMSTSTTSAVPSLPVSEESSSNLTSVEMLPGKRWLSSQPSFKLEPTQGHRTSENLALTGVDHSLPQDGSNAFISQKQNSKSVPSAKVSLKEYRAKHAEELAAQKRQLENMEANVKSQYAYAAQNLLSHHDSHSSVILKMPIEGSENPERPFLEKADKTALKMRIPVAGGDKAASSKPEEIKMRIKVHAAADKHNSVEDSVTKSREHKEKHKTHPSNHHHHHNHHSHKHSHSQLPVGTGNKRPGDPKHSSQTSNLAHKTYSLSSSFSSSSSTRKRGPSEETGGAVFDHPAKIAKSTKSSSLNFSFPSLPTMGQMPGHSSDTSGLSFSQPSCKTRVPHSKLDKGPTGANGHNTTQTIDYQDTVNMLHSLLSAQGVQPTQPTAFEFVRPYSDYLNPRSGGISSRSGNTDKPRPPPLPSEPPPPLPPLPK

IC50 (CDK9/CyclinT1) | Compound | IC50 [1]
> 20000 nM | CN1CCC(n2nc(NCc3nc4c(F)cccc4[nH]3)c3ncc(C4CC4)nc32)CC1 [Example 3, 6-cyclopropyl-N-[(4-fluoro-1H-benzimidazol-2-yl)methyl]-1-(1-methylpiperidin-4-yl)-1H-pyrazolo[3,4-b]pyrazin-3-amine] | 8.64 nM
> 20000 nM | CN1CCC(n2nc(NCc3nc4cc(F)ccc4[nH]3)c3ncc(C4CC4)nc32)CC1 [Example 4, 6-cyclopropyl-N-[(5-fluoro-1H-benzimidazol-2-yl)methyl]-1-(1-methylpiperidin-4-yl)-1H-pyrazolo[3,4-b]pyrazin-3-amine] | 17.1 nM
> 20000 nM | O=CO.c1ccc(-n2nc(NCc3nc4ccccc4[nH]3)c3ncc(C4CC4)nc32)cc1 [Example 13, formic acid—N-[(1H-benzimidazol-2-yl)methyl]-6-cyclopropyl-1-phenyl-1H-pyrazolo[3,4-b]pyrazin-3-amine (1/1)] | 39 nM
> 20000 nM | CC(C)n1nc(NCc2nc3ccccc3[nH]2)c2ncc(C3CC3)nc21 [Example 14, N-[(1H-benzimidazol-2-yl)methyl]-6-cyclopropyl-1-(propan-2-yl)-1H-pyrazolo[3,4-b]pyrazin-3-amine] | 42.9 nM
> 20000 nM | Cn1nc(NCc2nc3ccccc3[nH]2)c2ncc(C3CC3)nc21 [Example 15, N-[(1H-benzimidazol-2-yl)methyl]-6-cyclopropyl-1-methyl-1H-pyrazolo[3,4-b]pyrazin-3-amine] | 131 nM
> 20000 nM | CN1CCC(n2nc(NCc3nc4cc(Cl)c(Cl)cc4[nH]3)c3ncc(C4CC4)nc32)CC1 [Example 19, 6-cyclopropyl-N-[(5,6-dichloro-1H-benzimidazol-2-yl)methyl]-1-(1-methylpiperidin-4-yl)-1H-pyrazolo[3,4-b]pyrazin-3-amine] | 8.59 nM
> 20000 nM | CN1CCC(n2nc(NCc3nc4c(Br)cccc4[nH]3)c3ncc(C4CC4)nc32)CC1 [Example 20, N-[(4-bromo-1H-benzimidazol-2-yl)methyl]-6-cyclopropyl-1-(1-methylpiperidin-4-yl)-1H-pyrazolo[3,4-b]pyrazin-3-amine] | 20.6 nM
> 20000 nM | Cc1c(Cl)ccc2[nH]c(CNc3nn(C4CCN(C)CC4)c4nc(C5CC5)cnc34)nc12 [Example 21, N-[(5-chloro-4-methyl-1H-benzimidazol-2-yl)methyl]-6-cyclopropyl-1-(1-methylpiperidin-4-yl)-1H-pyrazolo[3,4-b]pyrazin-3-amine] | 26.1 nM
> 20000 nM | CN1CCC(n2nc(NCc3nc4cc(Cl)ccc4[nH]3)c3ncc(C4CC4)nc32)CC1 [Example 22, N-[(5-chloro-1H-benzimidazol-2-yl)methyl]-6-cyclopropyl-1-(1-methylpiperidin-4-yl)-1H-pyrazolo[3,4-b]pyrazin-3-amine] | 9.36 nM
> 20000 nM | Fc1cccc2[nH]c(CNc3nn(C4CCOCC4)c4nc(C5CC5)cnc34)nc12 [Example 23, 6-cyclopropyl-N-[(4-fluoro-1H-benzimidazol-2-yl)methyl]-1-(oxan-4-yl)-1H-pyrazolo[3,4-b]pyrazin-3-amine] | 30.9 nM
> 20000 nM | COc1cccc2[nH]c(CNc3nn(C4CCOCC4)c4nc(C5CC5)cnc34)nc12 [Example 24, 6-cyclopropyl-N-[(4-methoxy-1H-benzimidazol-2-yl)methyl]-1-(oxan-4-yl)-1H-pyrazolo[3,4-b]pyrazin-3-amine] | 4.77 nM
> 20000 nM | CN1CCC(n2nc(NCc3nc4cc(C(F)(F)F)ccc4[nH]3)c3ncc(C4CC4)nc32)CC1 [Example 25, 6-cyclopropyl-1-(1-methylpiperidin-4-yl)-N-{[5-(trifluoromethyl)-1H-benzimidazol-2-yl]methyl}-1H-pyrazolo[3,4-b]pyrazin-3-amine] | 5.88 nM
> 20000 nM | Cc1c(F)ccc2[nH]c(CNc3nn(C4CCN(C)CC4)c4nc(C5CC5)cnc34)nc12 [Example 26, 6-cyclopropyl-N-[(5-fluoro-4-methyl-1H-benzimidazol-2-yl)methyl]-1-(1-methylpiperidin-4-yl)-1H-pyrazolo[3,4-b]pyrazin-3-amine] | 20 nM
> 20000 nM | Cc1ccc2[nH]c(CNc3nn(C4CCN(C)CC4)c4nc(C5CC5)cnc34)nc2c1C [Example 28, 6-cyclopropyl-N-[(4,5-dimethyl-1H-benzimidazol-2-yl)methyl]-1-(1-methylpiperidin-4-yl)-1H-pyrazolo[3,4-b]pyrazin-3-amine] | 16.8 nM
> 20000 nM | CN1CCC(n2nc(NCc3nc4cc(Cl)c(F)cc4[nH]3)c3ncc(C4CC4)nc32)CC1 [Example 29, N-[(5-chloro-6-fluoro-1H-benzimidazol-2-yl)methyl]-6-cyclopropyl-1-(1-methylpiperidin-4-yl)-1H-pyrazolo[3,4-b]pyrazin-3-amine] | 9.47 nM
> 20000 nM | CN1CCC(n2nc(NCc3nc4cc(F)c(F)cc4[nH]3)c3ncc(C4CC4)nc32)CC1 [Example 30, 6-cyclopropyl-N-[(5,6-difluoro-1H-benzimidazol-2-yl)methyl]-1-(1-methylpiperidin-4-yl)-1H-pyrazolo[3,4-b]pyrazin-3-amine] | 11.7 nM
> 20000 nM | CN1CCC(n2nc(NCc3nc4c(Cl)c(F)ccc4[nH]3)c3ncc(C4CC4)nc32)CC1 [Example 31, N-[(4-chloro-5-fluoro-1H-benzimidazol-2-yl)methyl]-6-cyclopropyl-1-(1-methylpiperidin-4-yl)-1H-pyrazolo[3,4-b]pyrazin-3-amine] | 4.99 nM
> 20000 nM | Fc1ccc2[nH]c(CNc3nn(C4CCOCC4)c4nc(C5CC5)cnc34)nc2c1F [Example 32, 6-cyclopropyl-N-[(4,5-difluoro-1H-benzimidazol-2-yl)methyl]-1-(oxan-4-yl)-1H-pyrazolo[3,4-b]pyrazin-3-amine] | 29 nM
> 20000 nM | Cc1cccc2[nH]c(CNc3nn(C4CCOCC4)c4nc(C5CC5)cnc34)nc12 [Example 33, 6-cyclopropyl-N-[(4-methyl-1H-benzimidazol-2-yl)methyl]-1-(oxan-4-yl)-1H-pyrazolo[3,4-b]pyrazin-3-amine] | 16.9 nM
> 20000 nM | c1ccc2[nH]c(CNc3nn(C4CCCC4)c4nc(C5CC5)cnc34)nc2c1 [Example 39, N-[(1H-benzimidazol-2-yl)methyl]-1-cyclopentyl-6-cyclopropyl-1H-pyrazolo[3,4-b]pyrazin-3-amine] | 107 nM
> 20000 nM | O[C@H]1C[C@@H](n2nc(NCc3nc4ccccc4[nH]3)c3ncc(C4CC4)nc32)C1 [Example 40, cis-3-(3-{[(1H-benzimidazol-2-yl)methyl]amino}-6-cyclopropyl-1H-pyrazolo[3,4-b]pyrazin-1-yl)cyclobutan-1-ol] | 8.65 nM
